These results are taken from patent US8513381B2, “Melanocortin analogs with antimicrobial activity” (Fondazione IRCCS Ca' Granda-Ospedale Maggiore Policlinico, priority 2009, dated 2013).

Structures are written as SMILES. Values after ≈ are worked out from the molar mass of the structure shown. Non-standard residues stand in square brackets, D forms with d. Residues, ends and D or L forms follow the SMILES beside them. d2Nal = N[C@H](Cc1ccc2ccccc2c1)C(=O)O; Cha = N[C@@H](CC1CCCCC1)C(=O)O; Aic = NC1(C(=O)O)Cc2ccccc2C1

Experiment [1] concerns Staphylococcus aureus ATCC 29213. In kind it is cell-based. As for the experimental part: (§1) The bacterial strains Pseudomonas aeruginosa ATCC 27853 and Staphylococcus aureus ATCC 29213 were grown in 2% Bacto Peptone water (Difco 1807-17-4) until growth was exponential. A standard microdilution technique with an inoculum of 2×10^6 CFU/mL was used. The minimal inhibitory concentration (MIC) of the peptides was determined in 1% Bacto Peptone water after incubation overnight at 37° C.

Experiment [2] deals with Pseudomonas aeruginosa ATCC 27853. The experiment is classed as cell-based. As for the experimental part:
as §1

The subject of another experiment is C. glabrata. The experiment is classed as cell-based, Candida glabrata. As for the experimental part:
Two Candida albicans isolates were purchased from the ATCC (No. 24433 and 76615). The other yeast isolates were obtained from the collection of Fondazione Ospedale Maggiore Policlinico, Mangiagalli e Regina Elena, Milano. The collection included C. albicans (7 isolates), C. glabrata (3 isolates), and C. krusei (3 isolates). Antifungal susceptibility testing was performed using the broth microdilution method according to the NCCLS M27-A guidelines (National Committee for Clinical Laboratory Standards. 1997, Reference method for broth dilution antifungal susceptibility testing of yeasts and approved standard NCCLS document M27-A. National Committee for Clinical Laboratory Standards, Wayne, Pa.). The organisms were removed from frozen glycerol stock (10% sterile glycerol suspensions stored at −70° C.), subcultured onto Sabouraud's dextrose plates, and incubated at 35° C. After 48 h of incubation, the plates were inspected for purity. To prepare stationary growth phase yeast, a colony was taken from the agar plate and transferred into 5 mL Sabouraud-dextrose broth and incubated for 48 h at 35° C. Cells were centrifuged at 1,000×g for 10 min and the pellet was washed twice with distilled water. Cells were counted and suspended in RPMI 1640 medium buffered to pH 7.0 with 0.165 mol l^−1 morpholinepropanesulphonic acid (MOPS) buffer (Sigma) to obtain the two times test inoculum (1×10^3 to 5×10^3 CFU/mL). Each well of 96 U-shaped well-plates received 100 μl of each antifungal peptides in concentrations from 10^−4 to 7.8×10^−7 M and 100 μl of the two-times inoculum to a final yeast concentration of 0.5×10−[…] cells ml^−1
The MIC90, i.e. the minimum inhibitory concentrations endpoint determined as 90% reduction in turbidity measured using a spectrophotometer (Titertek multiscan at 690 nm wave length).

As for `CC(C)[C@H](NC(=O)[C@H](Cc1ccccc1)NC(=O)[C@H](CCCCN)NC(=O)[C@H](CC1CCCCC1)NC(=O)[C@H](Cc1c[nH]c2ccccc12)NC(=O)[C@H](CCCNC(=N)N)NC(=O)[C@@H](Cc1ccc2ccccc2c1)NC(=O)[C@@H](N)Cc1c[nH]cn1)C(N)=O` [MSH0704, H-His-D(2)-Nal-Arg-Trp-Cha-Lys-Phe-Val-NH2] (H-H[d2Nal]RW[Cha]KFV-NH2), the “MIC (minimal inhibitory concentration)” value in experiment [1] amounted to 31 µg/mL (≈ 25.4 µM); in experiment [2] it was 61 µg/mL (≈ 49.9 µM). The “MIC 90 at 48 hours” value against C. glabrata was 122 µg/mL (≈ 99.9 µM).
For `CC(C)[C@H](NC(=O)[C@H](Cc1ccccc1)NC(=O)[C@H](CCCCN)NC(=O)C1(NC(=O)[C@H](Cc2c[nH]c3ccccc23)NC(=O)[C@H](CCCNC(=N)N)NC(=O)[C@@H](Cc2ccc3ccccc3c2)NC(=O)[C@@H](N)Cc2c[nH]cn2)Cc2ccccc2C1)C(N)=O` [MSH0708, H-His-D(2)-Nal-Arg-Trp-Aic-Lys-Phe-Val-NH2] (H-H[d2Nal]RW[Aic]KFV-NH2), in that order: 31 µg/mL (≈ 25.3 µM), 61 µg/mL (≈ 49.7 µM) and 123 µg/mL (≈ 100 µM).
